In patent US9775844B2, “Heterocyclic compounds and uses thereof” (Infinity Pharmaceuticals, Inc., priority 2014, dated 2017):

Tests used:
[1] = system: post-irradiated tumors; conditions: cited from earlier work
[2] = system: CCL3, CCL4, and CXCL13; conditions: CLL; cited from earlier work
[3] = system: haematological malignancies; conditions: cited from earlier work
[4] = Human pharmacokinetic prediction based on non-human animal studies
Protocol: Based on non-human animal studies, a predicted human dose to achieve exposure at the IC90 for PI3K-γ is approximately 2 mg. […] In some embodiments, the dose (e.g., a therapeutically effective dose) is about 2 mg, 1-3 mg, 1-5 mg, 1-10 mg, 0.5-20 mg, 0.1-50 mg, 0.1-75 mg, 0.5-75 mg, 1-75 mg, 0.1-100 mg, 0.5-100 mg, or 1-100 mg. In some embodiments, the dose is about 1-10 mg. In some embodiments, the dose is about 1-50 mg. In some embodiments, the dose is about 1-100 mg. In a 70 kg human, a 2 mg dose corresponds to 0.029 mg/kg.

[5] = target: PI3K γ (Homo sapiens (Human), UniProt P48736); test: PI3-Kinase Promega ADP-Glo Max assay; type: biochemical
PI3K γ, sequence (P48736 whole entry): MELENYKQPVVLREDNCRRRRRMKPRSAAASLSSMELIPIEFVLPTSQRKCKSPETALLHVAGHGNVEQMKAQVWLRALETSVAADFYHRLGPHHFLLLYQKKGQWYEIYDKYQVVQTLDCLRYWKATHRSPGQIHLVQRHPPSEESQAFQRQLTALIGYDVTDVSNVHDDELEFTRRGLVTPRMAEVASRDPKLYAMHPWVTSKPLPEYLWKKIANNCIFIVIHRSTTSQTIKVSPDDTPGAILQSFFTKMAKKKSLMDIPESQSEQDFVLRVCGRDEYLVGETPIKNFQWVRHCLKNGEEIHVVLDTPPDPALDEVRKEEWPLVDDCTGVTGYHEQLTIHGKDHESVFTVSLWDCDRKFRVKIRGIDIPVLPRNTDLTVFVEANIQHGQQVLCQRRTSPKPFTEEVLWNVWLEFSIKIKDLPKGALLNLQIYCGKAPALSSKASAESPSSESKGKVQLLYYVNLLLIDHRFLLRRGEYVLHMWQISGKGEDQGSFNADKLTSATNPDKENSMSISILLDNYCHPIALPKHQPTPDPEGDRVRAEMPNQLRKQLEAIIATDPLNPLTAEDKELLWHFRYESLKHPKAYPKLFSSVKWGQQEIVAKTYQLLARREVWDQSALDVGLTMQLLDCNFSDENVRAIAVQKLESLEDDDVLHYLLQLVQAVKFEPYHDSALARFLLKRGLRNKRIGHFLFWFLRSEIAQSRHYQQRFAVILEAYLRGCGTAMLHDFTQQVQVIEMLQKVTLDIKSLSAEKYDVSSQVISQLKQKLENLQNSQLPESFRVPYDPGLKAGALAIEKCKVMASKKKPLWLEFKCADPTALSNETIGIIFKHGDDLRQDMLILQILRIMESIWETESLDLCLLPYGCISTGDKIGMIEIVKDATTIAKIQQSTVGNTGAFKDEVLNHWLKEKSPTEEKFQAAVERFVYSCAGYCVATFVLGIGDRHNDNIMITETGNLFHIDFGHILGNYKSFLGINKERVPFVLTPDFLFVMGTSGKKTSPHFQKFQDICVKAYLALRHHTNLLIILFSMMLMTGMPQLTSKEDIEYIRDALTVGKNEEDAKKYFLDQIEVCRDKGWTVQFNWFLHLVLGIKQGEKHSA
Protocol: Promega ADP-Glo Max assay kit (Cat. No. V7002) was utilized to determine IC50 values for α, β, δ and γ isoforms of human Class I PI3 kinases (Millipore). […] Reactions were incubated at room temperature for 2 hours followed by addition of 25 uL of stop solution. After a 40-minute incubation at room temperature, 50 uL of Promega detection mix was added followed by incubation for 1 hour at room temperature. Plates were then read on Envision plate reader in lunimescence mode. Data was converted to % inhibition using the following equation below:
[formula] where S is the sample luminescence, Pos is a positive control without added PI3K, Neg is the negative control without added compound. Data was then plotted as % inhibition vs compound concentration.

[6] = target: PI3K δ (Homo sapiens (Human), UniProt O00329); test: PI3-Kinase Promega ADP-Glo Max assay; type: biochemical
[7] = target: PI3K-γ in RAW264.7 macrophages (Mus musculus (Mouse), UniProt Q9JHG7); test: Raw264.7 p110 γ assay (PI3K-γ selective cellular assay, C5a-stimulated phospho-AKT); type: cell-based; conditions: for IC50: phospho-AKT, read-out: Raw264.7 p110 γ assay IC50
PI3K-γ in RAW264.7 macrophages, sequence (Q9JHG7 whole entry): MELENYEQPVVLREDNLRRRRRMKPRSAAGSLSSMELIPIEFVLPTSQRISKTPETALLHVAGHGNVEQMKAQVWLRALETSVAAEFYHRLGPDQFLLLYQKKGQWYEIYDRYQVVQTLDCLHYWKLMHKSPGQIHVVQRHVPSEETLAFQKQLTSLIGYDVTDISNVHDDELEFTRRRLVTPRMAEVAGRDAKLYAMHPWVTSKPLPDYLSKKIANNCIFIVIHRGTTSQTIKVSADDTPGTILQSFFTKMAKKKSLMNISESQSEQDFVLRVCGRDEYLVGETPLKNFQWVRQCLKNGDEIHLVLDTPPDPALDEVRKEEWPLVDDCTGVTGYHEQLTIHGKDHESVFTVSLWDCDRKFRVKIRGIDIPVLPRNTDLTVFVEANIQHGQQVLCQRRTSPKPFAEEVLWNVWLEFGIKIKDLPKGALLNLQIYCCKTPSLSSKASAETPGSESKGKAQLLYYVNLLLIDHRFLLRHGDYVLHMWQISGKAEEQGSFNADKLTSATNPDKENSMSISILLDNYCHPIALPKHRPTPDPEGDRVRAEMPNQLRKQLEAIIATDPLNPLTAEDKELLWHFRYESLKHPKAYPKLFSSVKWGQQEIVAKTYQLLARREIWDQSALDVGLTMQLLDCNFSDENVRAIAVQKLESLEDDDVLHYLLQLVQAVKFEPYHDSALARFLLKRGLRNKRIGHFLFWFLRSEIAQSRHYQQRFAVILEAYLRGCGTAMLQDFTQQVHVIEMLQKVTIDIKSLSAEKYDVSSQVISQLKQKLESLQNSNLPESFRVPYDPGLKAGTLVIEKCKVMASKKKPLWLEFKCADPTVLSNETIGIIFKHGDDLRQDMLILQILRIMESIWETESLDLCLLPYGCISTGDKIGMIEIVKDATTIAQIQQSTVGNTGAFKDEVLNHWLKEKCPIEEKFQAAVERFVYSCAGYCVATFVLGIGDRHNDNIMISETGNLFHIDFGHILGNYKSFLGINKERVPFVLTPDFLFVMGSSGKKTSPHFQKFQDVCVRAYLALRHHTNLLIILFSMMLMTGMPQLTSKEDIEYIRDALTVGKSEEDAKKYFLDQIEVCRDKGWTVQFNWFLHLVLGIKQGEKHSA
Text: Briefly, serum-starved RAW264.7 cells are stimulated with a known GPCR agonist C5a. […] Cells can be treated with test compounds prior to, simultaneously with, or subsequent to the stimulation by C5a. RAW 264.7 cells respond to the complement component fragment C5a through activation of the C5a receptor, and the C5a receptor activates macrophages and induces cell migration.

[8] = target: PI3K α (Homo sapiens (Human), UniProt P42336); test: PI3-Kinase Promega ADP-Glo Max assay; type: biochemical
PI3K α, sequence (P42336 whole entry): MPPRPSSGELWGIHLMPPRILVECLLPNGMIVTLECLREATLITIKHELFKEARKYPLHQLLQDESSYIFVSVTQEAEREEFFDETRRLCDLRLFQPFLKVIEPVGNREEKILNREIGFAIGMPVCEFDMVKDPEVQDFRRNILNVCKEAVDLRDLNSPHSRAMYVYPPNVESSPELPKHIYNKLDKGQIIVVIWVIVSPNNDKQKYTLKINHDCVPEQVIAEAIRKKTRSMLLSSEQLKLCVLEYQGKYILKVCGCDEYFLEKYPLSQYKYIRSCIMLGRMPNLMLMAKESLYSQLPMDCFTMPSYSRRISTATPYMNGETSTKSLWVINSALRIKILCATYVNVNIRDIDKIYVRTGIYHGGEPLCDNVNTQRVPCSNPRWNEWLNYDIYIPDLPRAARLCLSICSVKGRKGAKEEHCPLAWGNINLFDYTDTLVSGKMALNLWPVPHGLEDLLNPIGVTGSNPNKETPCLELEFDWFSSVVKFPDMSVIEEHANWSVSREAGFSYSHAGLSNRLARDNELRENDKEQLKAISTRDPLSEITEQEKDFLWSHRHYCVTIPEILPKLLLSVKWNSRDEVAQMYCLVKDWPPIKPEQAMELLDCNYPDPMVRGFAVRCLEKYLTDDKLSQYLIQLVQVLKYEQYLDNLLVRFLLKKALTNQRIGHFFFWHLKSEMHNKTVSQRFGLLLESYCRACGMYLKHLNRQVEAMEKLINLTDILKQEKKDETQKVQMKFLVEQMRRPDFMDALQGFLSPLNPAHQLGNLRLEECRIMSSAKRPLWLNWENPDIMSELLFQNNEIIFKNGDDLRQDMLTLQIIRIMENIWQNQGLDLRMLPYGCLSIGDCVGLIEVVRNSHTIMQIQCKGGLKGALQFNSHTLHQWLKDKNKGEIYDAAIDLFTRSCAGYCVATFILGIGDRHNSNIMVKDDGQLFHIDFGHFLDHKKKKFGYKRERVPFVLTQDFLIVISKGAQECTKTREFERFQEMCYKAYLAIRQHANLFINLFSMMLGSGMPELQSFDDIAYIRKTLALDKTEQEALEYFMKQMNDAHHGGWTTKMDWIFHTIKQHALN
PI3K α, sequence (P27986 whole entry partner): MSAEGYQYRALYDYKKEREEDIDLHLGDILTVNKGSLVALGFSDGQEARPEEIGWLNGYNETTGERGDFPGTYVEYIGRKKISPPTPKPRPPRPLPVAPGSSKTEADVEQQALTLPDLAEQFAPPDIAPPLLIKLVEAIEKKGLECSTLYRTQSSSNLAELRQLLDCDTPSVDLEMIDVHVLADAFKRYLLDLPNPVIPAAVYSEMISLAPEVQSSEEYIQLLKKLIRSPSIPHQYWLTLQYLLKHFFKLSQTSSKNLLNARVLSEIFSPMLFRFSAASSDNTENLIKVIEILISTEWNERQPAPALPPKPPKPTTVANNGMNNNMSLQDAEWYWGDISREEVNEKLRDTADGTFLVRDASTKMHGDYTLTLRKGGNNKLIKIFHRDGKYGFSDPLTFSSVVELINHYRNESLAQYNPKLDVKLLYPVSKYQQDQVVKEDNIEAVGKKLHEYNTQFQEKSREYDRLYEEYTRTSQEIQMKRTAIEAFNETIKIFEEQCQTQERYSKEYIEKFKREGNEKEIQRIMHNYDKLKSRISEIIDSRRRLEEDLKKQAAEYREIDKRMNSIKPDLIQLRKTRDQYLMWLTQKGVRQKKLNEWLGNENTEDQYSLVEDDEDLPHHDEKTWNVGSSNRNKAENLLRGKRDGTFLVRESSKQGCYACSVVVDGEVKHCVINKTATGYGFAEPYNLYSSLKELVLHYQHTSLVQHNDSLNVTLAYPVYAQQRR

[9] = target: PI3K-δ in RAJI cells (Homo sapiens (Human), UniProt O00329); test: RAJI p110 δ assay (PI3K-δ selective cellular assay, phospho-AKT); type: cell-based; conditions: phospho-AKT; read-out: RAJI p110 δ assay IC50
[10] = target: PI3K β (Homo sapiens (Human), UniProt P42338); test: PI3-Kinase Promega ADP-Glo Max assay; type: biochemical
PI3K β, sequence (P42338 whole entry): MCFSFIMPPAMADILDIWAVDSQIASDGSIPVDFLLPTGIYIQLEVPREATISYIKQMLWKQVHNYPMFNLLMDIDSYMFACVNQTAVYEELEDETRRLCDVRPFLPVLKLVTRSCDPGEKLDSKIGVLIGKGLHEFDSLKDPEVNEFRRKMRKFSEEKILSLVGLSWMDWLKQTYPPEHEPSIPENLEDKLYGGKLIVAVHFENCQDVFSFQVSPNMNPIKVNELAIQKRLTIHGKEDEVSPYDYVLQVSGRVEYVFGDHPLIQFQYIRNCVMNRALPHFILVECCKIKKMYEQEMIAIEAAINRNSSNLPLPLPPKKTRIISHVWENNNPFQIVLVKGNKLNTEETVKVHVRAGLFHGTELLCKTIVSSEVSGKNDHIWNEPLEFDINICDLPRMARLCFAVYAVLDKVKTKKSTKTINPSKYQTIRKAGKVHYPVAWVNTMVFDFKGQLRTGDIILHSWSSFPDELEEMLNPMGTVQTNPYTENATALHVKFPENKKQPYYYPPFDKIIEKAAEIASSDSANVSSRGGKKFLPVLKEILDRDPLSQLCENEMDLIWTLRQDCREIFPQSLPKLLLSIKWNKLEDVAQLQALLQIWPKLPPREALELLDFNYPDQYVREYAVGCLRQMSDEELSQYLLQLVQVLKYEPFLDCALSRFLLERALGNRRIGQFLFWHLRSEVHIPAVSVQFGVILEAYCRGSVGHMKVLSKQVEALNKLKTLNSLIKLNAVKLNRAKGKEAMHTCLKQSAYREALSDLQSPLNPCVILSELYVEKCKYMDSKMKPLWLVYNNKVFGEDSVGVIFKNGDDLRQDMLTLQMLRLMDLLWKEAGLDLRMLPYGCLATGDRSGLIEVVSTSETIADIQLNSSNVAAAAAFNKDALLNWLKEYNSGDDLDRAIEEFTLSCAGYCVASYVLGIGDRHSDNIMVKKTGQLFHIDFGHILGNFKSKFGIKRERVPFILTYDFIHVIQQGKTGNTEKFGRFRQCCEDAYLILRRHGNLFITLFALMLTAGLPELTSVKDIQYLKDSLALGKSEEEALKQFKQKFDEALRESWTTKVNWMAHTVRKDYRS
PI3K β, sequence (P27986 whole entry partner): as the sequence (P27986 whole entry partner) above

Row | Structure (SMILES) | tumor vasculogenesis and tumor regrowth [1] | expression of stromal and T-cell derived factors including CCL3, CCL4, and CXCL13 [2] | lymph node and lymphocyte response in CLL patients ([3]; CLL patients) | single agent clinical activity in lymphoma ([3]; mantle cell lymphoma and refractory non Hodgkin's lymphoma) | clinical activity in CLL ([3]; phase 1 trial, patients with poor prognostic characteristics) | predicted human dose to achieve exposure at the IC90 for PI3K-γ [4] | IC50 [5] [nM] | PI3K δ/PI3K γ IC50 (selectivity) [5] | IC50 [6] [nM] | RAJIδ/Raw264.7 γ IC50 (selectivity) [7] | IC50 [7] [nM] | IC50 [8] [nM] | IC50 [9] [nM] | IC50 [10] [nM]
1 | c1cc(CN2CCCNCCNCCCNCC2)ccc1CN1CCCNCCNCCCNCC1 [AMD3100] | blocked tumor vasculogenesis and tumor regrowth | – | – | – | – | – | – | – | – | – | – | – | – | –
2 | CC[C@H](Nc1ncnc2[nH]cnc12)c1nc2cccc(F)c2c(=O)n1-c1ccccc1 [CAL-101] | – | suppresses the expression | induces rapid lymph node reduction and redistribution of lymphocytes into the circulation | active in mantle cell lymphoma | showed activity in CLL | – | – | – | – | – | – | – | – | –
3 | C[C@H](NC(=O)c1c(N)nn2cccnc12)c1cc2cccc(C#Cc3cnn(C)c3)c2c(=O)n1-c1ccccc1 [Compound 4] | – | – | – | – | – | approximately 2 mg | – | – | – | – | – | – | – | –
4 | Cc1scnc1C#Cc1cccc2cc([C@H](C)NC(=O)c3c(N)nn4cccnc34)n(-c3ccccc3)c(=O)c12 [Compound 78] | – | – | – | – | – | – | 100 to 500 | X (X = 10 to <50) | 5000 to 10000 | X (X = 10 to <50) | 1 to 50 | 5000 to 10000 | 100 to 500 | 5000 to 10000
5 | Cc1nc(C)c(C#Cc2cccc3cc([C@H](C)NC(=O)c4c(N)nn5cccnc45)n(-c4ccccc4)c(=O)c23)s1 [Compound 79] | – | – | – | – | – | – | 500 to 1000 | X (X = 10 to <50) | 5000 to 10000 | Y (Y = 50 to <850) | 1 to 50 | 5000 to 10000 | 1000 to 10000 | 5000 to 10000
6 | C[C@H](NC(=O)c1c(N)nn2cccnc12)c1cc2cccc(C#Cc3cn[nH]c3)c2c(=O)n1-c1ccccc1 [Compound 80] | – | – | – | – | – | – | 1 to 100 | Y (key: V = 0.1 to 1; W = >1 to <10; X = 10 to <50; Y = 50 to <850) | 5000 to 10000 | Y (key: V = 0.1 to 1; W = >1 to <10; X = 10 to <50; Y = 50 to <850) | 1 to 50 | 1000 to 5000 | 100 to 500 | 1000 to 5000
7 | CC(=O)N1CCC(C#Cc2cccc3cc([C@H](C)NC(=O)c4c(N)nn5cccnc45)n(-c4ccccc4)c(=O)c23)CC1 [Compound 82] | – | – | – | – | – | – | 100 to 500 | X (key: V = 0.1 to 1; W = >1 to <10; X = 10 to <50; Y = 50 to <850) | 5000 to 10000 | X (key: V = 0.1 to 1; W = >1 to <10; X = 10 to <50; Y = 50 to <850) | 1 to 50 | 5000 to 10000 | 500 to 1000 | 5000 to 10000
